Values quoted from earlier work as cited in patent US10059967B2, “Microorganisms and processes for producing terephthalic acid and its salts” (Genomatica, Inc., priority 2012, dated 2018).

solubility in aqueous solution (in words): Only slightly soluble
SMILES: Cc1ccc(C(=O)O)cc1 [p-toluate, 4-methylbenzoate]
